Source: US20200270309A1, “MALEIMIDE GROUP-MODIFIED ANGIOGENESIS INHIBITOR HM-1 AND USE THEREOF” (NANJING ANJI BIOLOGICAL TECHNOLOGY CO., LTD, priority 2017, published 2020)
Marks after values point to notes of the source that are not given here. Peptide text beside a SMILES is read from it. * marks the point of attachment. X63 = O=C1C=CC(=O)N1c1ccccc1CCCCCCC(=O)*; X49 = O=C1C=CC(=O)N1c1ccccc1CCCCCC(=O)*

Columns and labels:
[1] = test system: adjuvant arthritis; test: Rat adjuvant arthritis (AA) animal model; assay type: in vivo, SD rats; conditions: 4.0 mg/kg; for Clinical score: intravenous in the tail once every five days from day 10, four paws scored 0-4, max 16, mean±SD; for Joint swelling degree / Left and right paw swelling degree: intravenous in the tail once every five days from day 10, mean±SD
[2] = test system: choroidal neovascularization; test: Choroidal neovascularization in rats (laser photocoagulation, FFA); assay type: in vivo; conditions: BN rats
Outline: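 Male BN rats aged 6-8 weeks were given 8 krypton-laser spots around the optic disc (647.1 nm, 350 mW, 50 μm, 0.05 s). Once the model was confirmed, groups of 5 got daily intravitreal compound at 0.05 μM or saline for 1 week. FFA followed at 3, 7, 14 and 28 days after dosing.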

[3] = test system: retinal neovascularization (OIR model); test: Retinal vessels in OIR mice; assay type: in vivo, C57/B16 mice; conditions: for Area of neovascular plexus (mm^2): dose 0.05 μM in the vitreous chamber on day 13, retinal vessels evaluated on day 17; for Inhibition rate (%): dose 0.05 μM in the vitreous chamber on day 13, retinal vessels evaluated on day 17, vs negative control
Outline: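 C57/B16 pups were held in 75% oxygen from postnatal day 7 to 12, then returned to room air. On day 13 they received intravitreal saline or compound. On day 17 perfused vessels were labelled by Texas red tomato agglutinin injected into the left ventricle (5 min circulation) and retinal vasculature assessed.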

[4] = Half-lives and pharmacokinetic parameters of polypeptides vs HM-1; conditions: in vivo; for half-life: T1/2β (half-life)
[5] = test system: splenic lymphocytes; test: Proliferation of splenic lymphocytes in mice (ConA, MTT); assay type: cell-based; conditions: ConA-stimulated mouse splenic lymphocytes, 48 h
Outline: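 Proliferation read as OD 570 nm after 4 h MTT and DMSO solubilisation, five parallel wells. Before that, ConA-stimulated splenic lymphocytes from mice, 5×10^6 cells/mL in 10% calf serum RPMI 1640, were cultured 48 h at 37° C. with different peptide concentrations; controls were blank, ConA alone and dexamethasone.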

[6] = test system: carrageenan-induced toe swelling; test: Carrageenan-induced toe swelling in rats; assay type: in vivo; conditions: SD rats; for Swelling degree 1 h: 1 h after carrageenan; for Swelling degree 3 h: 3 h after carrageenan; for Swelling degree 5 h: 5 h after carrageenan; for Swelling degree 7 h: 7 h after carrageenan
Outline: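 Paw swelling, in mL, is the post-inflammation minus pre-inflammation volume of the right hind foot, read as overflow liquid when immersed to a pen-marked joint. Treatment was daily injection over 3 d; model group received saline of the same volume.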

[7] = day 3 after administration, total light spot number was 297, 0.05 μM in the vitreous chamber once a day for 1 week
[8] = day 7 after administration, total light spot number was 186, 0.05 μM in the vitreous chamber once a day for 1 week
[9] = day 14 after administration, total light spot number was 137, 0.05 μM in the vitreous chamber once a day for 1 week
[10] = day 28 after administration, total light spot number was 69, 0.05 μM in the vitreous chamber once a day for 1 week

AUC(0-inf) [4]	MRT inf [4]	clearance [4]	half-life [4]	SMILES	Clinical score [1]	Joint swelling degree [1]	Left and right paw swelling degree [1]	CNV Incidence (%) [2, 7]	Leakage Light spot number [2, 7]	CNV Incidence (%) [2, 8]	Leakage Light spot number [2, 8]	CNV Incidence (%) [2, 9]	Leakage Light spot number [2, 9]	CNV Incidence (%) [2, 10]	Leakage Light spot number [2, 10]	Area of neovascular plexus (mm^2) [3]	Inhibition rate (%) [3]	A570 nm/A630 nm ([5]; polypeptide dose 0.05 μM)	Inhibition rate (%) ([5]; polypeptide dose 0.05 μM)	A570 nm/A630 nm ([5]; polypeptide dose 0.1 μM)	also measured
30000 ± 7060 ng·h/mL	53.8 ± 12.3 h	0.555 mL/min/kg	37.26 ± 0.29 h	C[C@H](NC(=O)CNC(=O)[C@H](CCCNC(=N)N)NC(=O)CCCCCc1ccccc1N1C(=O)C=CC1=O)C(=O)N[C@@H](CC(=O)O)C(=O)N[C@@H](CCCNC(=N)N)C(=O)N[C@@H](C)C(=O)NCC(=O)NCC(=O)NCC(=O)NCC(=O)N[C@@H](CCCNC(=N)N)C(=O)NCC(=O)N[C@@H](CC(=O)O)C(=O)O [X17] (X49-RGADRAGGGGRGD-OH)	5.82 ± 1.05	0.78 ± 0.15 mm	3.84 ± 0.88 mm	54.88%	163	48.39%	90	42.34%	58	40.58%	28	0.084 ± 0.009 mm^2	60.38%**	0.6219 ± 0.0629	7.92%	0.5484 ± 0.1109	Inhibition rate (%) ([5]; polypeptide dose 0.1 μM): 18.80%; A570 nm/A630 nm ([5]; polypeptide dose 0.2 μM): 0.5025 ± 0.0957; Inhibition rate (%) ([5]; polypeptide dose 0.2 μM): 25.60%; Swelling degree 1 h ([6]; 2.0 mg/kg once a day for 3 d): 0.27 ± 0.15 mg; Swelling degree 3 h ([6]; 2.0 mg/kg once a day for 3 d): 0.32 ± 0.14 mg; Swelling degree 5 h ([6]; 2.0 mg/kg once a day for 3 d): 0.38 ± 0.17 mg; Swelling degree 7 h ([6]; 2.0 mg/kg once a day for 3 d): 0.35 ± 0.19 mg; Swelling degree 1 h ([6]; 4.0 mg/kg once a day for 3 d): 0.24 ± 0.12 mg; Swelling degree 3 h ([6]; 4.0 mg/kg once a day for 3 d): 0.31 ± 0.19 mg; Swelling degree 5 h ([6]; 4.0 mg/kg once a day for 3 d): 0.37 ± 0.17 mg; Swelling degree 7 h ([6]; 4.0 mg/kg once a day for 3 d): 0.34 ± 0.15 mg
27200 ± 7310 ng·h/mL	48.7 ± 14.1 h	0.613 mL/min/kg	33.75 ± 0.27 h	C[C@H](NC(=O)CNC(=O)[C@H](CCCNC(=N)N)NC(=O)CCCCCCc1ccccc1N1C(=O)C=CC1=O)C(=O)N[C@@H](CC(=O)O)C(=O)N[C@@H](CCCNC(=N)N)C(=O)N[C@@H](C)C(=O)NCC(=O)NCC(=O)NCC(=O)NCC(=O)N[C@@H](CCCNC(=N)N)C(=O)NCC(=O)N[C@@H](CC(=O)O)C(=O)O [X18] (X63-RGADRAGGGGRGD-OH)	5.67 ± 1.04	0.83 ± 0.15 mm	3.81 ± 0.85 mm	53.87%	160	46.24%	86	45.99%	63	44.93%	31	0.119 ± 0.011 mm^2	43.87%*	0.6041 ± 0.0524	10.56%	0.5571 ± 0.0554	Inhibition rate (%) ([5]; polypeptide dose 0.1 μM): 17.52%; A570 nm/A630 nm ([5]; polypeptide dose 0.2 μM): 0.4402 ± 0.0534; Inhibition rate (%) ([5]; polypeptide dose 0.2 μM): 34.82%; Swelling degree 1 h ([6]; 2.0 mg/kg once a day for 3 d): 0.23 ± 0.18 mg; Swelling degree 3 h ([6]; 2.0 mg/kg once a day for 3 d): 0.33 ± 0.16 mg; Swelling degree 5 h ([6]; 2.0 mg/kg once a day for 3 d): 0.36 ± 0.15 mg; Swelling degree 7 h ([6]; 2.0 mg/kg once a day for 3 d): 0.32 ± 0.13 mg; Swelling degree 1 h ([6]; 4.0 mg/kg once a day for 3 d): 0.24 ± 0.17 mg; Swelling degree 3 h ([6]; 4.0 mg/kg once a day for 3 d): 0.39 ± 0.18 mg; Swelling degree 5 h ([6]; 4.0 mg/kg once a day for 3 d): 0.45 ± 0.15 mg; Swelling degree 7 h ([6]; 4.0 mg/kg once a day for 3 d): 0.33 ± 0.12 mg
